Assay results taken from US12226412B2, “Heteroaryl-ketone fused azadecalin glucocorticoid receptor modulators” (Corcept Therapeutics, Inc., priority 2012, dated 2025).

Key:
human recombinant GR = target: T1, human recombinant GR (Homo sapiens, UniProt P04150); assay: Human glucocorticoid receptor (GR) fluorescence polarisation (FP) binding assay; conditions: human recombinant GR, fluorescence polarisation binding assay; read-out: GR binding
T1 construct: purchased PanVera P2812
T1 sequence (P04150 1-777): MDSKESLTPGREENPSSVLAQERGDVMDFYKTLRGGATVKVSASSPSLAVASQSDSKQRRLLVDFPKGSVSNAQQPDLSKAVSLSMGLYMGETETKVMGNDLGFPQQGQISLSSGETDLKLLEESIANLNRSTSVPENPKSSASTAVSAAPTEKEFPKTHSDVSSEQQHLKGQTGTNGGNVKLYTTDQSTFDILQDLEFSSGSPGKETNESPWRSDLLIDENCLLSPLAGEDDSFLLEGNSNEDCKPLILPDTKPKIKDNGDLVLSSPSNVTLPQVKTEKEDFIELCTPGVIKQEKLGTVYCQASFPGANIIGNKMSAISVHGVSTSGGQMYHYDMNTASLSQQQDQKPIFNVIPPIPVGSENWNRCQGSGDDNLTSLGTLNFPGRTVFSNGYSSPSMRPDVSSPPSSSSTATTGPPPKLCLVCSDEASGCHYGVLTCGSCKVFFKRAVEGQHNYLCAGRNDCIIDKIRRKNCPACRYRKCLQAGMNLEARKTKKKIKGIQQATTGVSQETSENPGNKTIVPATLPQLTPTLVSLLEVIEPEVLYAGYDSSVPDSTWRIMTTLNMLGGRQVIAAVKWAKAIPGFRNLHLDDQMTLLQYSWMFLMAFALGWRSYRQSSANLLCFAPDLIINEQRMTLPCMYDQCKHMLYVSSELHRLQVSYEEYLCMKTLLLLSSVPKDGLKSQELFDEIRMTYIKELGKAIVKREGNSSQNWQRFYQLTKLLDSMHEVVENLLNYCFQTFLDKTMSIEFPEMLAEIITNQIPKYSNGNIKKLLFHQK
Summary of the method: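 Competition fluorescence polarisation: 0.5 nM GS Red labelled glucocorticoid and 1 nM recombinant human GR with 8-point half-log compound series, 1% DMSO, 4 h room temperature, potassium phosphate pH 7.4 buffer with molybdate, EDTA, DTT. Affinity derived from the drop in polarisation, normalised to blank wells.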

[1] = system: induction of TAT by dexamethasone in HepG2 cells; assay: HepG2 tyrosine aminotransferase (TAT) assay; assay type: cell-based, human; conditions: HepG2 cells, challenge of 100 nM dexamethasone; Ki from IC50 by Cheng and Prusoff equation

Cc1ccnc(C(=O)[C@]23Cc4cnn(-c5ccc(F)cc5)c4C=C2CCN(S(=O)(=O)c2cccc(C(F)(F)F)c2)C3)c1 [Example 11AG, (R)-(1-(4-fluorophenyl)-6-((3-(trifluoromethyl)phenyl)sulfonyl)-4,4a,5,6,7,8-hexahydro-1H-pyrazolo[3,4-g]isoquinolin-4a-yl)(4-methylpyridin-2-yl)methanone] was tested, and the Ki (human recombinant GR) was < 0.0005 µM and the Ki [1] was < 0.02 µM.
In the case of Cn1ccnc1S(=O)(=O)N1CCC2=Cc3c(cnn3-c3ccc(F)cc3)C[C@]2(C(=O)c2cc(C(F)(F)F)ccn2)C1 [Example 11BX, (R)-(1-(4-fluorophenyl)-6-((1-methyl-1H-imidazol-2-yl)sulfonyl)-4,4a,5,6,7,8-hexahydro-1H-pyrazolo[3,4-g]isoquinolin-4a-yl)(4-(trifluoromethyl)pyridin-2-yl)methanone], the Ki (human recombinant GR) is reported as 0.0005 to 0.001 µM and the Ki [1] is reported as < 0.02 µM.
With Cn1nncc1S(=O)(=O)N1CCC2=Cc3c(cnn3-c3ccc(F)cc3)C[C@]2(C(=O)c2cc(C(F)(F)F)ccn2)C1 [Example 11CF, (R)-(1-(4-fluorophenyl)-6-((1-methyl-1H-1,2,3-triazol-5-yl)sulfonyl)-4,4a,5,6,7,8-hexahydro-1H-pyrazolo[3,4-g]isoquinolin-4a-yl)(4-(trifluoromethyl)pyridin-2-yl)methanone] the Ki (human recombinant GR) was > 0.001 µM and the Ki [1] was 0.02 to 0.1 µM.
For O=C(c1ccccn1)[C@]12Cc3cnn(-c4ccc(F)cc4)c3C=C1CCN(S(=O)(=O)c1ccc(Cl)c(C(F)(F)F)c1)C2 [Example 11BF, (R)-(6-((4-chloro-3-(trifluoromethyl)phenyl)sulfonyl)-1-(4-fluorophenyl)-4,4a,5,6,7,8-hexahydro-1H-pyrazolo[3,4-g]isoquinolin-4a-yl)(pyridin-2-yl)methanone], the Ki (human recombinant GR) was < 0.0005 µM and the Ki [1] was 0.02 to 0.1 µM.
Cn1cc(C(=O)[C@]23Cc4cnn(-c5ccc(F)cc5)c4C=C2CCN(S(=O)(=O)c2ccc(Cl)c(Cl)c2)C3)cn1 [Example 11CC, (R)-(6-((3,4-dichlorophenyl)sulfonyl)-1-(4-fluorophenyl)-4,4a,5,6,7,8-hexahydro-1H-pyrazolo[3,4-g]isoquinolin-4a-yl)(1-methyl-1H-pyrazol-4-yl)methanone] was tested, and the Ki (human recombinant GR) was > 0.001 µM and the Ki [1] was 0.02 to 0.1 µM.
Cc1ccc(S(=O)(=O)N2CCC3=Cc4c(cnn4-c4ccc(F)cc4)C[C@]3(C(=O)c3ccccn3)C2)c(F)c1 [Example 11E, (R)-(6-((2-fluoro-4-methylphenyl)sulfonyl)-1-(4-fluorophenyl)-4,4a,5,6,7,8-hexahydro-1H-pyrazolo[3,4-g]isoquinolin-4a-yl)(pyridin-2-yl)methanone] was tested, and the Ki (human recombinant GR) was < 0.0005 µM and the Ki [1] was 0.02 to 0.1 µM.
In the case of COc1c(F)cc(S(=O)(=O)N2CCC3=Cc4c(cnn4-c4ccc(F)cc4)C[C@]3(C(=O)c3ccccn3)C2)cc1F [Example 15D, (R)-(6-((3,5-difluoro-4-methoxyphenyl)sulfonyl)-1-(4-fluorophenyl)-4,4a,5,6,7,8-hexahydro-1H-pyrazolo[3,4-g]isoquinolin-4a-yl)(pyridin-2-yl)methanone], the Ki (human recombinant GR) is reported as 0.0005 to 0.001 µM and the Ki [1] is reported as < 0.02 µM.
Cc1ccnc(C(=O)[C@]23Cc4cnn(-c5ccc(F)cc5)c4C=C2CCN(S(=O)(=O)c2cn(C)cn2)C3)c1 [Example 11V, (R)-(1-(4-fluorophenyl)-6-((1-methyl-1H-imidazol-4-yl)sulfonyl)-4,4a,5,6,7,8-hexahydro-1H-pyrazolo[3,4-g]isoquinolin-4a-yl)(4-methylpyridin-2-yl)methanone] was tested, and the Ki (human recombinant GR) was < 0.0005 µM and the Ki [1] was 0.02 to 0.1 µM.
CCn1cc(S(=O)(=O)N2CCC3=Cc4c(cnn4-c4ccc(F)cc4)C[C@]3(C(=O)c3nccs3)C2)cn1 [Example 12X, (R)-(6-((1-ethyl-1H-pyrazol-4-yl)sulfonyl)-1-(4-fluorophenyl)-4,4a,5,6,7,8-hexahydro-1H-pyrazolo[3,4-g]isoquinolin-4a-yl)(thiazol-2-yl)methanone] was tested, and the Ki (human recombinant GR) was < 0.0005 µM and the Ki [1] was 0.02 to 0.1 µM.
With CCn1cc(S(=O)(=O)N2CCC3=Cc4c(cnn4-c4ccc(F)cc4)C[C@]3(C(=O)c3cscn3)C2)cn1 [Example 11BZ, (R)-(6-((1-ethyl-1H-pyrazol-4-yl)sulfonyl)-1-(4-fluorophenyl)-4,4a,5,6,7,8-hexahydro-1H-pyrazolo[3,4-g]isoquinolin-4a-yl)(thiazol-4-yl)methanone] the Ki (human recombinant GR) was < 0.0005 µM and the Ki [1] was 0.02 to 0.1 µM.
In the case of CCCn1ncc(S(=O)(=O)N2CCC3=Cc4c(cnn4-c4ccc(F)cc4)C[C@]3(C(=O)c3nccs3)C2)n1 (single isomer, unassigned) [Example 12AA], the Ki (human recombinant GR) is reported as < 0.0005 µM and the Ki [1] is reported as 0.02 to 0.1 µM.
N#Cc1ccc(CS(=O)(=O)N2CCC3=Cc4c(cnn4-c4ccc(F)cc4)C[C@]3(C(=O)c3nccs3)C2)cc1 [Example 5B, (R)-4-(((1-(4-fluorophenyl)-4a-(thiazole-2-carbonyl)-4a,5,7,8-tetrahydro-1H-pyrazolo[3,4-g]isoquinolin-6 (4H)-yl)sulfonyl)methyl)benzonitrile] was tested, and the Ki (human recombinant GR) was < 0.0005 µM and the Ki [1] was ≥ 0.1 µM.
Cn1ccc(S(=O)(=O)N2CCC3=Cc4c(cnn4-c4ccc(F)cc4)C[C@]3(C(=O)c3ccccn3)C2)n1 [Example 11BJ, (R)-(1-(4-fluorophenyl)-6-((1-methyl-1H-pyrazol-3-yl)sulfonyl)-4,4a,5,6,7,8-hexahydro-1H-pyrazolo[3,4-g]isoquinolin-4a-yl)(pyridin-2-yl)methanone] was tested, and the Ki (human recombinant GR) was < 0.0005 µM and the Ki [1] was 0.02 to 0.1 µM.
In the case of O=C(c1nccs1)[C@]12Cc3cnn(-c4ccc(F)cc4)c3C=C1CCN(S(=O)(=O)c1ccc(F)c(F)c1)C2 [Example 12P, (R)-(6-((3,4-difluorophenyl)sulfonyl)-1-(4-fluorophenyl)-4,4a,5,6,7,8-hexahydro-1H-pyrazolo[3,4-g]isoquinolin-4a-yl)(thiazol-2-yl)methanone], the Ki (human recombinant GR) is reported as < 0.0005 µM and the Ki [1] is reported as 0.02 to 0.1 µM.
O=C(c1nccs1)[C@]12Cc3cnn(-c4ccc(F)cc4)c3C=C1CCN(S(=O)(=O)c1ccc(N3CC[C@@H](F)C3)nc1)C2 [Example 9, ((R)-1-(4-fluorophenyl)-6-((6-((R)-3-fluoropyrrolidin-1-yl)pyridin-3-yl)sulfonyl)-4,4a,5,6,7,8-hexahydro-1H-pyrazolo[3,4-g]isoquinolin-4a-yl)(thiazol-2-yl)methanone] was tested, and the Ki (human recombinant GR) was < 0.0005 µM and the Ki [1] was ≥ 0.1 µM.
With COc1ccnc(C(=O)[C@]23Cc4cnn(-c5ccc(F)cc5)c4C=C2CCN(S(=O)(=O)c2cc(F)c(F)c(F)c2)C3)c1 [Example 1M, (R)-(1-(4-fluorophenyl)-6-((3,4,5-trifluorophenyl)sulfonyl)-4,4a,5,6,7,8-hexahydro-1H-pyrazolo[3,4-g]isoquinolin-4a-yl)(4-methoxypyridin-2-yl)methanone] the Ki (human recombinant GR) was < 0.0005 µM and the Ki [1] was < 0.02 µM.
With O=C(c1ccccn1)[C@]12Cc3cnn(-c4ccc(F)cc4)c3C=C1CCN(S(=O)(=O)c1ccc(Cl)c(F)c1)C2 [Example 2H, (R)-(6-((4-chloro-3-fluorophenyl)sulfonyl)-1-(4-fluorophenyl)-4,4a,5,6,7,8-hexahydro-1H-pyrazolo[3,4-g]isoquinolin-4a-yl)(pyridin-2-yl)methanone] the Ki (human recombinant GR) was < 0.0005 µM and the Ki [1] was < 0.02 µM.
In the case of N#Cc1ccc(S(=O)(=O)N2CCC3=Cc4c(cnn4-c4ccc(F)cc4)C[C@]3(C(=O)c3ccccn3)C2)cc1 [Example 2Q, (R)-4-((1-(4-fluorophenyl)-4a-picolinoyl-4a,5,7,8-tetrahydro-1H-pyrazolo[3,4-g]isoquinolin-6 (4H)-yl)sulfonyl)benzonitrile], the Ki (human recombinant GR) is reported as < 0.0005 µM and the Ki [1] is reported as 0.02 to 0.1 µM.
For Cc1[nH]ncc1S(=O)(=O)N1CCC2=Cc3c(cnn3-c3ccc(F)cc3)C[C@]2(C(=O)c2cc(C(F)(F)F)ccn2)C1 [Example 11BK, (R)-(1-(4-fluorophenyl)-6-((5-methyl-1H-pyrazol-4-yl)sulfonyl)-4,4a,5,6,7,8-hexahydro-1H-pyrazolo[3,4-g]isoquinolin-4a-yl)(4-(trifluoromethyl)pyridin-2-yl)methanone], the Ki (human recombinant GR) was < 0.0005 µM and the Ki [1] was < 0.02 µM.
With O=C(c1ccccn1)[C@]12Cc3cnn(-c4ccc(F)cc4)c3C=C1CCN(S(=O)(=O)c1ccc(F)c(Cl)c1)C2 [Example 11R, (R)-(6-((3-chloro-4-fluorophenyl)sulfonyl)-1-(4-fluorophenyl)-4,4a,5,6,7,8-hexahydro-1H-pyrazolo[3,4-g]isoquinolin-4a-yl)(pyridin-2-yl)methanone] the Ki (human recombinant GR) was < 0.0005 µM and the Ki [1] was < 0.02 µM.
In the case of O=C(c1ccccn1)[C@]12Cc3cnn(-c4ccc(F)cc4)c3C=C1CCN(S(=O)(=O)c1cccc(OC(F)F)c1)C2 [Example 11L, (R)-(6-((3-(difluoromethoxy)phenyl)sulfonyl)-1-(4-fluorophenyl)-4,4a,5,6,7,8-hexahydro-1H-pyrazolo[3,4-g]isoquinolin-4a-yl)(pyridin-2-yl)methanone], the Ki (human recombinant GR) is reported as < 0.0005 µM and the Ki [1] is reported as < 0.02 µM.
